Results reported in paper PMC10629583, “Specific inhibition of an anticancer target, polo-like kinase 1, by allosterically dismantling its mechanism of substrate recognition” (Proceedings of the National Academy of Sciences of the …, 2023).

Tests used:
human His-Plk1 = target: T1, human His-Plk1 (Homo sapiens, UniProt P53350); test: In vitro Plk1 kinase assay (casein, 32P); type: biochemical; settings: casein substrate
T1 construct: His (N); purchased Sino Biological; host or cells: Sf9
Description: Kinase reactions were carried out in two steps. First, Sf9-purified 0.2 µg of human His-Plk1 (Sino Biological) was preincubated in a kinase cocktail [50 mM Tris-Cl (pH 7.5), 10 mM MgCl2, 2 mM dithiothreitol, 2 mM EGTA, and 27 mM p-nitrophenylphosphate] in the presence of either Allopole-A or p-13mer PBIP peptide for 20 min at 25 °C. The samples were then added with 1 µg of dephosphorylated casein (Sigma) and 1.25 µM of ATP (1.25 µCi of [γ^32P] ATP, 1Ci = 37 GBq) and reacted for additional 30 min at 30 °C. The reactions were terminated by the addition of 5× Laemmli SDS sample buffer, separated by 10% SDS-PAGE, and analyzed by autoradiography. To quantify the γ^32P signals, appropriate bands were excised from dried SDS-PAGE gels and analyzed by a liquid scintillation counter (Beckman model LS 6500).

[1] = Solubility in PBS (imaging of insoluble particles, dynamic light scattering); type: physicochemical; settings: PBS buffer (pH 7.4)
Description: All samples were analyzed after adjusting the concentration to 100 μM solution in the PBS buffer (pH 7.4) containing 1% DMSO. The measurements were carried out at 25 °C using the DynaPro NanoStar system (Wyatt Technology). The intensity of the scattered light was measured as a function of time, and the resulting data were used to calculate the size and distribution of the particles in the sample. Collected data were analyzed using the DYNAMICS software to calculate the mean size and polydispersity index of the particles in the sample. At least three repeat measurements were performed to ensure that the results were accurate and reproducible.
Fig. S1. Solubility and activity of Allopole and its related compounds. (A) Images showing insoluble
particles of 200 µM of the indicated compounds dissolved in the PBS buffer. The aggregates of […]

T1 sequence (P53350 whole entry): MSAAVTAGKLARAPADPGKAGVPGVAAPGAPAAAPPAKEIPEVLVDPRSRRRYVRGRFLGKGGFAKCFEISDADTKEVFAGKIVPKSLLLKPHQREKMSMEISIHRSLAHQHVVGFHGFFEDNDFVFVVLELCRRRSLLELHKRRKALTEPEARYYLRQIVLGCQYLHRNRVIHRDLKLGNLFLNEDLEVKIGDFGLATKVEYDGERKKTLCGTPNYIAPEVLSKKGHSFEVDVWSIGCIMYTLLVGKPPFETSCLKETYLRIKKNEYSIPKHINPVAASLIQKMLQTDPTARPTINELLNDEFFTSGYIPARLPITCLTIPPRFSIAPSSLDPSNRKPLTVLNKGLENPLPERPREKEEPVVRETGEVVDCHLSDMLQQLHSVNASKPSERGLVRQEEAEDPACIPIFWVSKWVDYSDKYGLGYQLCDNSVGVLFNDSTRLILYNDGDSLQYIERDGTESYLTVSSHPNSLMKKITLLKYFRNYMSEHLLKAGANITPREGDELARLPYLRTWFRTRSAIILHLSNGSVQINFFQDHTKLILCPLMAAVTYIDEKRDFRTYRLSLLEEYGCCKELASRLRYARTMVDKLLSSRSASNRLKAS

Row | SMILES | Effect on His-Plk1 kinase activity in vitro (in words) (human His-Plk1) | Solubility (in words) [1]
1 | O=c1c2sc(Cl)cc2n2c(=S)[nH]nc2n1CC1CC1 [Allopole-A] | significantly inhibited Plk1 activity | 
2 | Cn1cnc([N+](=O)[O-])c1Sc1nnc2n(CC3CC3)c(=O)c3sc(Cl)cc3n12 [Allopole] |  | greatly increased solubility
